In patent US8030341B2, “Dmt-derivative compounds and related compositions and methods of use” (priority 2005, dated 2011):
Where a name gives a salt, the structure may show the parent alone. Read-outs that look alike come from different tables or passages of the source.

Assays:
δ-opioid receptor [1] = biological target: T1, δ-opioid receptor (Mus musculus, UniProt P32300); conditions: Table 2; reference value marked 6a; cited from earlier work
T1 construct: The isolated tissues were suspended in organ baths containing balanced salt solutions; from tissue; host or cells: isolated mouse vas deferens
T1 sequence (P32300 whole entry): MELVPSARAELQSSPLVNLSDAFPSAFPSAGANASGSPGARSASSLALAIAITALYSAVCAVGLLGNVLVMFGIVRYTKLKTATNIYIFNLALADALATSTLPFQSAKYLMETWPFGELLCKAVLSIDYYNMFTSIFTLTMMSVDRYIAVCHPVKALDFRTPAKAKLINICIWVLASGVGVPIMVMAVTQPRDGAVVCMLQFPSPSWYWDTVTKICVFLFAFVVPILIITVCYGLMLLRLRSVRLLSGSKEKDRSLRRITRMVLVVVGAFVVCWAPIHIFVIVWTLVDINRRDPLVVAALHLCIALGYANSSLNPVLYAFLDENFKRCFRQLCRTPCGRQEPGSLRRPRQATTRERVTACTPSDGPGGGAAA

μ-opioid receptor [2] = biological target: T2, μ-opioid receptor (Cavia porcellus, UniProt P97266); conditions: Table 2; reference value marked 6a; cited from earlier work
T2 sequence (P97266 whole entry, looked up): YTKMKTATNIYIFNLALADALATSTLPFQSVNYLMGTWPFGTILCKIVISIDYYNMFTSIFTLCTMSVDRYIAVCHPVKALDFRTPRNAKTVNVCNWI

δ-opioid receptor [3] = biological target: T3, δ-opioid receptor (Rattus norvegicus, UniProt P33533); conditions: Table 3; reference rows marked e, f, g (no SE, no n); cited from earlier work
T3 construct: from tissue; host or cells: rat brain P2 synaptosomal membranes (Sprague-Dawley)
T3 sequence (P33533 whole entry): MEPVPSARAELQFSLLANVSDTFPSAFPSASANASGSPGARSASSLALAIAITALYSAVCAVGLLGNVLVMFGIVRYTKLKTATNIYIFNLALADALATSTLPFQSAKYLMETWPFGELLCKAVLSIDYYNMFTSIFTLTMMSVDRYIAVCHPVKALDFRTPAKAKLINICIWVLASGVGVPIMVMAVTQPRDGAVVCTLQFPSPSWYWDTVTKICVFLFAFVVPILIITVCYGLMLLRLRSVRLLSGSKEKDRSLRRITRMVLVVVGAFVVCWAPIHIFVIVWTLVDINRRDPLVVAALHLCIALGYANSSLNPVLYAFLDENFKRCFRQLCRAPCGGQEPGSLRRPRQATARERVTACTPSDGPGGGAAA

μ-opioid receptor [4] = biological target: T4, μ-opioid receptor (Rattus norvegicus, UniProt P33535); conditions: Table 3, reference rows marked e, f, cited from earlier work; for Ki: g (no SE, no n); for Ki(δ)/Ki(μ): g
T4 construct: from tissue; host or cells: rat brain P2 synaptosomal membranes (Sprague-Dawley)
T4 sequence (P33535 whole entry): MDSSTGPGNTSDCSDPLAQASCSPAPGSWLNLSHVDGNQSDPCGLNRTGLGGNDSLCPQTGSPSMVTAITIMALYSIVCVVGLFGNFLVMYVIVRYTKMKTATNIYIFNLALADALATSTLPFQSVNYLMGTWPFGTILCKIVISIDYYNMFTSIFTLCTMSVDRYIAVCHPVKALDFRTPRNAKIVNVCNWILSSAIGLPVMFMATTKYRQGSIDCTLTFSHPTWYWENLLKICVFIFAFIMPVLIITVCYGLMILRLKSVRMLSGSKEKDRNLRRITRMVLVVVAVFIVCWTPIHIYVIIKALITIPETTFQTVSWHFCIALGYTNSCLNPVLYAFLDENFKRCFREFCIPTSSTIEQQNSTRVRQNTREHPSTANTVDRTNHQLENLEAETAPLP

δ-opioid receptor [5] = biological target: T3, δ-opioid receptor; test: opioid receptor binding competition assay, rat brain P2 synaptosomal membranes (δ)
Protocol: (§1) Synaptosomes were preincubated to remove endogenous opioids, washed in excess ice-cold buffer containing protease inhibitor and stored in a glycerol-containing buffer with protease inhibitor at −80° C. as described in Lazarus et al., J. Med. Chem. 34:1350-55 (1991). […] After incubation, the radiolabeled membranes were rapidly filtered on Whatman GF/C glass fiber filters presoaked in 0.1% polyethylenimine in order to optimize the signal-to-noise ratio, washed with ice-cold BSA buffer, and dried at 75-80° C. Radioactivity was determined using EcoLume (ICN, Costa Mesa, Calif.). All compounds were analyzed in duplicate using 5-8 peptide dosages and several synaptosomal preparations in independent repetitions to ensure statistical significance. The affinity constants (Ki) were calculated according to Cheng and Prusoff (Cheng et al., Biochem. Pharmacol., 22: 3099-3108 ([…])).

μ-opioid receptor [6] = biological target: T4, μ-opioid receptor; test: opioid receptor binding competition assay, rat brain P2 synaptosomal membranes (μ); conditions: for Ki(δ)/Ki(μ): selectivity ratio
Protocol: as §1

δ-opioid receptor [7] = biological target: T1, δ-opioid receptor; test: mouse vas deferens (MVD) bioassay; format: cell-based; conditions: for MVD Antagonist pA2: versus deltorphin II as agonist
Source text: Bioorg. Med. Chem., 11: 675-678 (2003). The isolated tissues were suspended in organ baths containing balanced salt solutions in a physiological buffer, pH 7.5. […]

μ-opioid receptor [8] = biological target: T2, μ-opioid receptor; test: guinea pig ileum (GPI) bioassay; format: cell-based; conditions: for pA2(μ)/pA2(δ): selectivity of antagonism
Protocol: The myenteric plexus longitudinal muscle preparations (2-3 cm segments) from the small intestine of male Hartley strain guinea pigs (GP1) measured μ-opioid receptor agonism and a single mouse vas deferens (MVD) was used to determine δ-opioid receptor agonism as described in Sasaki et al. Bioorg. […] The isolated tissues were suspended in organ baths containing balanced salt solutions in a physiological buffer, pH 7.5. Agonists were tested for the inhibition of electrically evoked contraction and expressed as IC50 (nM) obtained from the dose-response curves.

[9] = system: morphine-induced analgesia; test: inhibition of morphine-induced analgesia after intracerebroventricular administration; format: in vivo; conditions: mice
[10] = Table 4, agonism, read-out: MVD
[11] = Table 4, agonism, read-out: GPI
[12] = Table 1, rat brain synaptosomes, footnote a: versus [3H]DAMGO, read-out: Ki(δ)
[13] = Table 1, rat brain synaptosomes, footnote b: versus [3H]DPDPE, read-out: Ki(μ)
[14] = Table 2, inhibition of electrically evoked contraction, read-out: MVD agonist IC50
[15] = Table 2, versus deltorphin II, antilog of pA2
[16] = Table 2, inhibition of electrically evoked contraction, read-out: GPI agonist IC50

Oc1ccc2c3c1O[C@H]1c4[nH]c5ccccc5c4C[C@@]4(O)[C@@H](C2)N(CC2CC2)CC[C@]314 [Naltrindole]
MVD Antagonist pA2 (δ-opioid receptor [1]): 9.2 | MVD Antagonist pA2 (nM), value in parentheses (Ke) (δ-opioid receptor [1]): 0.631 nM | GPI Antagonist pA2 (μ-opioid receptor [2]): 7.3 | GPI Antagonist pA2 (nM), value in parentheses (Ke) (μ-opioid receptor [2]): 50 nM

Cc1cc(O)cc(C)c1CC(N)C(=O)NCCCc1cnc(CCCNC(=O)C(N)Cc2c(C)cc(O)cc2C)c(=O)[nH]1 (centres unmarked) [Compound 37, 3,6-Bis-[Dmt-NH-propyl]pyrazinone]
Ki (δ-opioid receptor [3]): 13.2 nM | Ki (μ-opioid receptor [4]): 0.042 nM | Ki(δ)/Ki(μ) (μ-opioid receptor [4]): 307

Cc1cc(O)cc(C)c1CC(N)C(=O)N1Cc2ccccc2CC1C(=O)NCCCCCCCCCCNC(=O)C1Cc2ccccc2CN1C(=O)C(N)Cc1c(C)cc(O)cc1C (centres unmarked) (as salt: HCl) [Compound 20, 1,10-Bis(Drat-Tic-amino)decane]
melting point: 205 to 207 °C

Cc1cc(O)cc(C)c1CC(C(=O)N1Cc2ccccc2CC1C(=O)NCCCCCCNC(=O)C1Cc2ccccc2CN1C(=O)C(Cc1c(C)cc(O)cc1C)N(C)C)N(C)C (stereo not drawn) (as salt: HCl) [Compound 21, 1,6-Bis(N,N-Dimethyl-Dmt-Tic-NH)-hexane]
melting point: 195 to 197 °C

Cc1cc(O)cc(C)c1CC(N)C(=O)N1Cc2ccccc2CC1C(=O)NCCCCCCNC(=O)C1Cc2ccccc2CN1C(=O)C(N)Cc1c(C)cc(O)cc1C (stereo not drawn) (as salt: HCl) [Compound 19, 1,6-Bis(Dmt-Tic-amino)hexane]
melting point: 215 to 217 °C

C=CCNC(Cc1c(C)cc(O)cc1C)C(=O)NCCCCCCNC(=O)C(Cc1c(C)cc(O)cc1C)NCC=C (centres unmarked) [Compound 33, Bis-[(N-allyl)Dmt-NH]hexyl]
Ki (δ-opioid receptor [5]; Table 3, versus [3H]DPDPE, rat brain synaptosomes, read-out: Ki(δ)): 77.8 ± 14 nM | Ki(δ)/Ki(μ) (μ-opioid receptor [6]; Table 3): 11 | Ki (μ-opioid receptor [6]; Table 3, versus [3H]DAMGO, rat brain synaptosomes, read-out: Ki(μ)): 6.94 ± 1.4 nM | IC50 (δ-opioid receptor [7]; [10]): > 10000 nM | MVD pA2 (δ-opioid receptor [7]; Table 4, δ antagonism): 6.83 | IC50 (μ-opioid receptor [8]; [11]): > 10000 nM | pA2(μ)/pA2(δ) (μ-opioid receptor [8]; Table 4): 2.5 | GPI pA2 (μ-opioid receptor [8]; Table 4, μ antagonism): 7.23 | inhibition of morphine-induced analgesia [9]: inhibit morphine-induced analgesia

Cc1cc(O)cc(C)c1CC(N)C(=O)N1Cc2ccccc2CC1C(=O)NCc1[nH]c(=O)c(CNC(=O)C2Cc3ccccc3CN2C(=O)C(N)Cc2c(C)cc(O)cc2C)nc1C (centres unmarked) (as salt: HCl) [Compound 8]
melting point: 224 to 226 °C (dec.)

H-Dmt-Pro-Phe-Phe-NH2 [[Dmt^1]EM-2]
Ki (δ-opioid receptor [3]): 28.2 nM | Ki (μ-opioid receptor [4]): 0.15 nM | Ki(δ)/Ki(μ) (μ-opioid receptor [4]): 188

Cc1cc(O)cc(C)c1C[C@H](N)C(=O)NCCCCCCNC(=O)[C@@H](N)Cc1c(C)cc(O)cc1C [H-Dmt[NH—(CH2)6—NH]Dmt-H]
Ki(δ)/Ki(μ) (μ-opioid receptor [4]): 870

C=CCN[C@@H](Cc1c(C)cc(O)cc1C)C(=O)NCCCc1[nH]c(=O)c(CCCNC(=O)[C@H](Cc2c(C)cc(O)cc2C)NCC=C)nc1C [Compound 32, Bis-[(N-allyl)Dmt-NH-propyl]pyrazinone]
Ki (δ-opioid receptor [5]): 51.5 ± 4.1 nM | Ki (μ-opioid receptor [6]): 12.4 ± 1.1 nM | Ki(δ)/Ki(μ) (μ-opioid receptor [6]; Table 3): 4 | Kb (δ-opioid receptor [7]): 269 nM | IC50 (δ-opioid receptor [7]; [10]): > 10000 nM | Kb (μ-opioid receptor [8]): 67.6 nM | IC50 (μ-opioid receptor [8]; [11]): > 10000 nM | pA2(μ)/pA2(δ) (μ-opioid receptor [8]; Table 4): 4

3-(Dmt-Tic-NH-ethyl)-6-(Dmt-Tic-NH-butyl)-2(1H)-pyrazinone [Compound 14]
Ki (δ-opioid receptor [5]; [12]): 0.107 ± 0.007 nM | Ki(μ)/Ki(δ) (δ-opioid receptor [5]; Table 1, selectivity ratio): 13 | Ki (μ-opioid receptor [6]; [13]): 1.37 ± 0.13 nM | IC50 (δ-opioid receptor [7]; [14]): > 10000 nM | MVD Antagonist pA2 (δ-opioid receptor [7]; Table 2): 10.99 | MVD Antagonist pA2 (nM), value in parentheses (Ke) (δ-opioid receptor [7]; [15]): 0.0102 nM | IC50 (μ-opioid receptor [8]; [16]): > 10000 nM

Cc1cc(O)cc(C)c1CC(N)C(=O)N1Cc2ccccc2CC1C(=O)NCCCCNC(=O)C1Cc2ccccc2CN1C(=O)C(N)Cc1c(C)cc(O)cc1C (stereo not drawn) (as salt: HCl) [Compound 18, 1,4-Bis(Dmt-Tic-amino)butane]
melting point: 215 to 217 °C

3,6-Bis(Dmt-Tic-NH-butyl)-2(1H)-pyrazinone [Compound 11]
Ki (δ-opioid receptor [5]; [12]): 0.323 ± 0.007 nM | Ki(μ)/Ki(δ) (δ-opioid receptor [5]; Table 1, selectivity ratio): 5 | Ki (μ-opioid receptor [6]; [13]): 1.74 ± 0.14 nM | IC50 (δ-opioid receptor [7]; [14]): > 10000 nM | MVD Antagonist pA2 (δ-opioid receptor [7]; Table 2): 11.06 | MVD Antagonist pA2 (nM), value in parentheses (Ke) (δ-opioid receptor [7]; [15]): 0.0871 nM | IC50 (μ-opioid receptor [8]; [16]): > 10000 nM

Cc1cc(O)cc(C)c1CC(N)C(=O)N1Cc2ccccc2CC1C(=O)NCc1[nH]c(=O)c(CNC(=O)C2Cc3ccccc3CN2C(=O)C(N)Cc2c(C)cc(O)cc2C)nc1C (centres unmarked) [Compound 8]
Ki (δ-opioid receptor [5]): 0.163 ± 0.018 nM | Ki(μ)/Ki(δ) (δ-opioid receptor [5]): 23 | Ki (μ-opioid receptor [6]): 3.76 ± 0.3 nM | MVD Antagonist pA2 (nM), value in parentheses (Ke) (δ-opioid receptor [7]): 11.22 (0.006) nM | IC50 (δ-opioid receptor [7]; read-out: MVD agonist IC50): > 10000 nM | IC50 (μ-opioid receptor [8]; read-out: GPI agonist IC50): > 10000 nM

3-(Dmt-Tic-NH-butyl)-6-(Dmt-Tic-NH-propyl)-2(1H)-pyrazinone [Compound 13]
Ki (δ-opioid receptor [5]; [12]): 0.092 ± 0.01 nM | Ki(μ)/Ki(δ) (δ-opioid receptor [5]; Table 1, selectivity ratio): 25 | Ki (μ-opioid receptor [6]; [13]): 2.28 ± 0.03 nM | IC50 (δ-opioid receptor [7]; [14]): > 10000 nM | MVD Antagonist pA2 (δ-opioid receptor [7]; Table 2): 10.47 | MVD Antagonist pA2 (nM), value in parentheses (Ke) (δ-opioid receptor [7]; [15]): 0.0339 nM | IC50 (μ-opioid receptor [8]; [16]): > 10000 nM | GPI Antagonist pA2 (nM), value in parentheses (Ke) (μ-opioid receptor [8]; Table 2, versus endomorphin-2, antilog of pA2): 112 nM | GPI Antagonist pA2 (μ-opioid receptor [8]; Table 2, versus endomorphin-2 as agonist): 6.95
